# Measured values taken from the NIST ThermoML archive (doi:10.1021/je800579j).
# ± gives the expanded uncertainty stated by the source.
# Experiment: refractive index (Na D-line) (dimensionless); xn = mol fraction of the nth substance listed
# Conditions: Liquid, Standard Abbe refractometry
smiles,measurement,setting,value
"Cc1ccccc1C [1,2-dimethylbenzene] + C1COCCO1",refractive index,"288.15 K, x2 = 0",1.5083 ± 0.0007
same,refractive index,"288.15 K, x2 = 0.0672",1.5029 ± 0.0007
same,refractive index,"288.15 K, x2 = 0.1391",1.4972 ± 0.0007
same,refractive index,"288.15 K, x2 = 0.2103",1.4914 ± 0.0007
same,refractive index,"288.15 K, x2 = 0.2853",1.4853 ± 0.0007
same,refractive index,"288.15 K, x2 = 0.3543",1.4796 ± 0.0007
same,refractive index,"288.15 K, x2 = 0.4293",1.4734 ± 0.0007
same,refractive index,"288.15 K, x2 = 0.5092",1.4667 ± 0.0007
same,refractive index,"288.15 K, x2 = 0.581",1.4606 ± 0.0007
same,refractive index,"288.15 K, x2 = 0.6518",1.4545 ± 0.0006
same,refractive index,"288.15 K, x2 = 0.7248",1.4482 ± 0.0006
same,refractive index,"288.15 K, x2 = 0.7888",1.4427 ± 0.0006
same,refractive index,"288.15 K, x2 = 0.8595",1.4365 ± 0.0006
same,refractive index,"288.15 K, x2 = 0.9298",1.4305 ± 0.0006
same,refractive index,"293.15 K, x2 = 0",1.5055 ± 0.0007
same,refractive index,"293.15 K, x2 = 0.0672",1.5001 ± 0.0007
same,refractive index,"293.15 K, x2 = 0.1391",1.4944 ± 0.0007
same,refractive index,"293.15 K, x2 = 0.2103",1.4886 ± 0.0007
same,refractive index,"293.15 K, x2 = 0.2853",1.4825 ± 0.0007
same,refractive index,"293.15 K, x2 = 0.3543",1.4769 ± 0.0007
same,refractive index,"293.15 K, x2 = 0.4293",1.4707 ± 0.0007
same,refractive index,"293.15 K, x2 = 0.5092",1.4641 ± 0.0007
same,refractive index,"293.15 K, x2 = 0.581",1.458 ± 0.0007
same,refractive index,"293.15 K, x2 = 0.6518",1.452 ± 0.0006
same,refractive index,"293.15 K, x2 = 0.7248",1.4457 ± 0.0006
same,refractive index,"293.15 K, x2 = 0.7888",1.4402 ± 0.0006
same,refractive index,"293.15 K, x2 = 0.8595",1.4342 ± 0.0006
same,refractive index,"293.15 K, x2 = 0.9298",1.4282 ± 0.0006
same,refractive index,"298.15 K, x2 = 0",1.5029 ± 0.0007
same,refractive index,"298.15 K, x2 = 0.0672",1.4974 ± 0.0007
same,refractive index,"298.15 K, x2 = 0.1391",1.4917 ± 0.0007
same,refractive index,"298.15 K, x2 = 0.2103",1.4858 ± 0.0007
same,refractive index,"298.15 K, x2 = 0.2853",1.4798 ± 0.0007
same,refractive index,"298.15 K, x2 = 0.3543",1.4742 ± 0.0007
same,refractive index,"298.15 K, x2 = 0.4293",1.4681 ± 0.0007
same,refractive index,"298.15 K, x2 = 0.5092",1.4615 ± 0.0007
same,refractive index,"298.15 K, x2 = 0.581",1.4554 ± 0.0007
same,refractive index,"298.15 K, x2 = 0.6518",1.4495 ± 0.0007
same,refractive index,"298.15 K, x2 = 0.7248",1.4433 ± 0.0006
same,refractive index,"298.15 K, x2 = 0.7888",1.4378 ± 0.0006
same,refractive index,"298.15 K, x2 = 0.8595",1.4318 ± 0.0006
same,refractive index,"298.15 K, x2 = 0.9298",1.4259 ± 0.0006
same,refractive index,"303.15 K, x2 = 0",1.5002 ± 0.0007
same,refractive index,"303.15 K, x2 = 0.0672",1.4946 ± 0.0007
same,refractive index,"303.15 K, x2 = 0.1391",1.4889 ± 0.0007
same,refractive index,"303.15 K, x2 = 0.2103",1.4831 ± 0.0007
same,refractive index,"303.15 K, x2 = 0.2853",1.4771 ± 0.0007
same,refractive index,"303.15 K, x2 = 0.3543",1.4714 ± 0.0007
same,refractive index,"303.15 K, x2 = 0.4293",1.4654 ± 0.0007
same,refractive index,"303.15 K, x2 = 0.5092",1.4589 ± 0.0007
same,refractive index,"303.15 K, x2 = 0.581",1.4528 ± 0.0007
same,refractive index,"303.15 K, x2 = 0.6518",1.4469 ± 0.0007
same,refractive index,"303.15 K, x2 = 0.7248",1.4408 ± 0.0006
same,refractive index,"303.15 K, x2 = 0.7888",1.4354 ± 0.0006
same,refractive index,"303.15 K, x2 = 0.8595",1.4295 ± 0.0006
same,refractive index,"303.15 K, x2 = 0.9298",1.4236 ± 0.0006
same,refractive index,"308.15 K, x2 = 0",1.4975 ± 0.0007
same,refractive index,"308.15 K, x2 = 0.0672",1.4918 ± 0.0007
same,refractive index,"308.15 K, x2 = 0.1391",1.4861 ± 0.0007
same,refractive index,"308.15 K, x2 = 0.2103",1.4803 ± 0.0007
same,refractive index,"308.15 K, x2 = 0.2853",1.4743 ± 0.0007
same,refractive index,"308.15 K, x2 = 0.3543",1.4687 ± 0.0007
same,refractive index,"308.15 K, x2 = 0.4293",1.4627 ± 0.0007
same,refractive index,"308.15 K, x2 = 0.5092",1.4562 ± 0.0007
same,refractive index,"308.15 K, x2 = 0.581",1.4502 ± 0.0007
same,refractive index,"308.15 K, x2 = 0.6518",1.4444 ± 0.0007
same,refractive index,"308.15 K, x2 = 0.7248",1.4383 ± 0.0007
same,refractive index,"308.15 K, x2 = 0.7888",1.4329 ± 0.0006
same,refractive index,"308.15 K, x2 = 0.8595",1.4271 ± 0.0006
same,refractive index,"308.15 K, x2 = 0.9298",1.4213 ± 0.0006
same,refractive index,"313.15 K, x2 = 0",1.4948 ± 0.0007
same,refractive index,"313.15 K, x2 = 0.0672",1.489 ± 0.0007
same,refractive index,"313.15 K, x2 = 0.1391",1.4833 ± 0.0007
same,refractive index,"313.15 K, x2 = 0.2103",1.4775 ± 0.0007
same,refractive index,"313.15 K, x2 = 0.2853",1.4715 ± 0.0007
same,refractive index,"313.15 K, x2 = 0.3543",1.4659 ± 0.0007
same,refractive index,"313.15 K, x2 = 0.4293",1.46 ± 0.0007
same,refractive index,"313.15 K, x2 = 0.5092",1.4535 ± 0.0007
same,refractive index,"313.15 K, x2 = 0.581",1.4476 ± 0.0007
same,refractive index,"313.15 K, x2 = 0.6518",1.4418 ± 0.0007
same,refractive index,"313.15 K, x2 = 0.7248",1.4357 ± 0.0007
same,refractive index,"313.15 K, x2 = 0.7888",1.4304 ± 0.0006
same,refractive index,"313.15 K, x2 = 0.8595",1.4246 ± 0.0006
same,refractive index,"313.15 K, x2 = 0.9298",1.419 ± 0.0006
same,refractive index,"318.15 K, x2 = 0",1.4921 ± 0.0007
same,refractive index,"318.15 K, x2 = 0.0672",1.4862 ± 0.0007
same,refractive index,"318.15 K, x2 = 0.1391",1.4804 ± 0.0007
same,refractive index,"318.15 K, x2 = 0.2103",1.4746 ± 0.0007
same,refractive index,"318.15 K, x2 = 0.2853",1.4687 ± 0.0007
same,refractive index,"318.15 K, x2 = 0.3543",1.4632 ± 0.0007
same,refractive index,"318.15 K, x2 = 0.4293",1.4573 ± 0.0007
same,refractive index,"318.15 K, x2 = 0.5092",1.4509 ± 0.0007
same,refractive index,"318.15 K, x2 = 0.581",1.445 ± 0.0007
same,refractive index,"318.15 K, x2 = 0.6518",1.4392 ± 0.0007
same,refractive index,"318.15 K, x2 = 0.7248",1.4332 ± 0.0006
same,refractive index,"318.15 K, x2 = 0.7888",1.4279 ± 0.0006
same,refractive index,"318.15 K, x2 = 0.8595",1.4221 ± 0.0006
same,refractive index,"318.15 K, x2 = 0.9298",1.4166 ± 0.0006
